Data: article PMC8707451, “Separation and Identification of Antioxidants and Aldose Reductase Inhibitors in Lepechinia meyenii (Walp.) Epling” (Plants, 2021)
Marks after values point to notes of the source that are not given here.

What was measured:
[1] = DPPH radical scavenging assay (antioxidant); settings: for IC50: pure compounds
Protocol: The antioxidant potential of the samples was evaluated using DPPH radical scavenging assay, as reported previously. In brief, 180 μL of freshly prepared DPPH solution (0.32 mM in MeOH) was mixed with 20 μL of the sample (in 50% MeOH, extracts and fractions, 50–400 µg/mL; components, 125–500 µM) in a 96-well plate and incubated for 20 min in the dark at 25 °C. Then, the absorbance (570 nm) of the reaction solution was measured using an EL800 microplate reader (Bio-Tek Instruments, Winooski, VT, USA). Quercetin was used as a positive control.

[2] = molecular target: rat lens AR (aldose reductase) (Rattus norvegicus, UniProt P07943); experiment: AR inhibition assay with rat lens AR homogenate;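 further: supernatant of Sprague–Dawley rat lens extract as enzyme, DL-glyceraldehyde substrate, absorbance at 340 nm followed over 6 min, DMSO up to 0.5% v/v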
Protocol: The eyes of 10-week Sprague–Dawley rats (250–280 g) were removed and kept at −70 °C before use. Then, the lenses were removed from the eyes using surgical scissors and tweezers, ground in a mortar (precooled at −70 °C) and extracted using 0.1 M phosphate-buffered saline (PBS) of pH 6.2 (approximately 0.5 mL of buffer per one rat lens). The extract solution was further centrifuged at 10,000× g for 30 min at 4 °C (Mega 17R, Hanil Science Industry, Gimpo, Korea), and the supernatant was collected and used as rat lens AR homogenate.
For AR inhibition assay, 100 µL of 0.1 M PBS (pH 7.0), 20 µL of AR homogenate, 20 µL of NADPH (cofactor, 2.4 mM in 0.1 M PBS of pH 8.0), 20 µL of the sample (in a mixture of water and DMSO; extracts and fractions 62.5–100 µg/mL, compounds 3.9–500 µM), and 20 µL of ammonium sulfate solution (4 M in 0.1 M PBS of pH 7.0) were pipetted into a 96-well plate. Then, 20 µL of the substrate (in 0.1 M PBS of pH 7.0; 25 mM of DL-glyceraldehyde dimmer) was added, and the absorbance (340 nm) was measured for 6 min using an Epoch microplate spectrophotometer (BioTek Instruments, Winooski, VT, USA). […] DMSO was used to prepare samples, but its ratio was kept within 0.5% (v/v) of the reaction system.
The half-maximal inhibitory concentrations (IC50 values) of samples against DPPH radicals and AR were calculated via linear regression and logarithmic analysis, respectively.

[3] = read-out: AR Inhibitory Activity Inhibition (%)

Structure (SMILES)	DPPH Scavenging Activity Inhibition (%) ([1]; compound concentration 12.5 µM)	DPPH Scavenging Activity Inhibition (%) ([1]; compound concentration 25 µM)	DPPH Scavenging Activity Inhibition (%) ([1]; compound concentration 50 µM)	inhibition at 12.5 µM [2, 3]	inhibition at 25 µM [2, 3]	inhibition at 50 µM [2, 3]	IC50 ([1]; linear regression)	IC50 [2]	inhibition at 0.39 µM [2, 3]	inhibition at 0.78 µM [2, 3]	inhibition at 1.56 µM [2, 3]	inhibition at 3.125 µM [2, 3]	inhibition at 6.25 µM [2, 3]	DPPH Scavenging Activity IC50 ([1]; extracts, fractions and quercetin, linear regression)	DPPH Scavenging Activity Inhibition (%) ([1]; sample concentration 5 µg/mL)	DPPH Scavenging Activity Inhibition (%) ([1]; sample concentration 10 µg/mL)	DPPH Scavenging Activity Inhibition (%) ([1]; sample concentration 20 µg/mL)	inhibition at 2.5 µg/mL [2, 3]	inhibition at 5 µg/mL [2, 3]	inhibition at 10 µg/mL [2, 3]
COc1ccc(-c2cc(=O)c3c(O)cc(O)cc3o2)cc1O [Diosmetin (6), Diosmetin]	0.14 ± 0.34%	0.46 ± 0.35%	3.18 ± 0.42%	10.5 ± 3.79%	22 ± 1.25%	34 ± 1.03%	–	–	–	–	–	–	–	–	–	–	–	–	–	–
CCCCOC(=O)[C@@H](Cc1ccc(O)c(O)c1)OC(=O)/C=C/c1ccc(O)c(O)c1 [n-Butyl rosmarinate (7), n-Butyl rosmarinate]	19.98 ± 0.29%	40.73 ± 1.21%	84.85 ± 0.81%	–	–	–	30.02 ± 0.1 µM	1.54 ± 0.04 µM	13.1 ± 0.47%	28.6 ± 0.47%	51.4 ± 0.94%	–	–	–	–	–	–	–	–	–
CCOC(=O)[C@@H](Cc1ccc(O)c(O)c1)OC(=O)/C=C/c1ccc(O)c(O)c1 [Ethyl rosmarinate (S1), Ethyl rosmarinate]	22.02 ± 0.35%	38.38 ± 0.53%	83.09 ± 0.21%	–	–	–	30.54 ± 0.13 µM	1.02 ± 0.07 µM	27.4 ± 2.66%	43.2 ± 0.62%	60.5 ± 2.05%	–	–	–	–	–	–	–	–	–
COc1ccc([C@@H]2CC(=O)c3c(O)cc(O[C@@H]4O[C@H](CO[C@@H]5O[C@@H](C)[C@H](O)[C@@H](O)[C@H]5O)[C@@H](O)[C@H](O)[C@H]4O)cc3O2)cc1O [Hesperidin (2), Hesperidin]	1.20 ± 1.18%	2.57 ± 0.77%	3.37 ± 1.32%	1.78 ± 0.33%	10 ± 1.22%	11.6 ± 0.41%	–	–	–	–	–	–	–	–	–	–	–	–	–	–
O=C(/C=C/c1ccc(O)c(O)c1)O[C@H](Cc1ccc(O)c(O)c1)C(=O)O [Rosmarinic acid (3), Rosmarinic acid]	19.05 ± 1.33%	34.35 ± 0.69%	67.04 ± 0.64%	76 ± 1.03%	–	–	36.91 ± 0.35 µM	4.08 ± 0.11 µM	–	–	–	42.6 ± 1.63%	62.9 ± 2.1%	–	–	–	–	–	–	–
CCCOC(=O)[C@@H](Cc1ccc(O)c(O)c1)OC(=O)/C=C/c1ccc(O)c(O)c1 [Propyl rosmarinate (S2), Propyl rosmarinate]	17.68 ± 0.83%	37.15 ± 0.29%	77.82 ± 0.46%	–	–	–	32.7 ± 0.08 µM	1.29 ± 0.01 µM	12.3 ± 1.84%	37.9 ± 1.25%	53.67 ± 0.41%	–	–	–	–	–	–	–	–	–
COc1ccc(-c2cc(=O)c3c(O)cc(O[C@@H]4O[C@H](CO[C@@H]5O[C@@H](C)[C@H](O)[C@@H](O)[C@H]5O)[C@@H](O)[C@H](O)[C@H]4O)cc3o2)cc1O [Diosmin (4), Diosmin]	0.31 ± 0.69%	0.61 ± 1.08%	2.61 ± 0.67%	8.91 ± 0.62%	11.2 ± 0.82%	12.3 ± 0.62%	–	–	–	–	–	–	–	–	–	–	–	–	–	–
O=c1c(O)c(-c2ccc(O)c(O)c2)oc2cc(O)cc(O)c12 [Quercetin, quercetin, reference compound]	22.31 ± 0.92%	40.39 ± 0.82%	72.32 ± 0.42%	45 ± 1.65%	65.1 ± 1.47%	–	33.19 ± 0.31 µM	–	–	–	–	–	31.5 ± 1.7%	10.46 ± 0.34 ^e µg/mL	28.65 ± 0.38%	54.43 ± 2.07%	84.78 ± 2.36%	38.7 ± 0.91%	55.3 ± 1.58%	64 ± 0.88%
O=C(O)/C=C/c1ccc(O)c(O)c1 [Caffeic acid (1), Caffeic acid]	8.60 ± 0.87%	20.21 ± 0.58%	43.33 ± 0.69%	12.3 ± 2.09%	17.8 ± 0.41%	20.3 ± 0.62%	–	–	–	–	–	–	–	–	–	–	–	–	–	–
COC(=O)[C@@H](Cc1ccc(O)c(O)c1)OC(=O)/C=C/c1ccc(O)c(O)c1 [Methyl rosmarinate (5), Methyl rosmarinate]	18.68 ± 0.63%	37.59 ± 0.60%	76.21 ± 1.04%	–	–	–	33.01 ± 0.27 µM	1.17 ± 0.08 µM	22.1 ± 0.85%	40.9 ± 3.47%	56.7 ± 0.85%	–	–	–	–	–	–	–	–	–
